Assay results reported in patent publication US20070275902A1, “Treatment of Phosphatidylinositol Phospholipid Disorders” (TRANSMOLECULAR, INC., priority 2003, published 2007).
“Also recorded” adds a separate entry of the source.

Test: Binding to phosphatidylinositol beads (PIP beads), biotinylated peptide detected with streptavidin-HRP/TMB
Conditions: biotinylated peptide at final concentration of 100 μM, two hours at room temperature, absorbance 595 nm
Method: Sedimented suspensions of PIP beads™ were obtained from Molecular Probes. The beads are supplied as 10 nanomoles of bound phosphoinositide per milliliter of sedimented suspension. PIP beads were pelleted by centrifugation at low speed in a Beckman Coulter Microfuge. Pelleted beads were washed in wash-binding buffer (0.5% NP-40 in phosphate-buffered saline, 1 ml, 3×5 minutes) and centrifuged at low speed following each wash. After washing, pelleted beads were resuspended in an equal volume of Wash/Binding buffer. 100 μl of bead suspension was used for each binding reaction. Biotinylated chlorotoxin was diluted in wash-binding buffer, added to each phosphatidylinositol bead suspension at a final concentration of 100 μM and allowed to incubate for two hours at room temperature. Following incubation with chlorotoxin, the bead suspensions were washed in Wash/Binding buffer (1 ml, 3×5 minutes) and centrifuged at low speed after each wash. Streptavidin horseradish peroxidase (Vector Labs) was diluted 1:1000 in wash-binding buffer, 100 μl of this solution was added to each of the phosphatidylinositol bead suspensions, and allowed to incubate […] at room temperature. Following incubation with streptavidin, bead suspensions were washed thoroughly in Wash/Binding buffer (1 ml, 5×10 minutes) and centrifuged at low speed after each wash. Immediately prior to use, a 1:1 mixture of TMB substrate (Pierce) was prepared, 100 μl of this solution was added to each reaction, and allowed to incubate at room temperature for up to thirty minutes. After incubation with substrate, bead suspensions were pelleted by centrifugation, supernatants were transferred to a 96-well plate and absorbance (λ=595 nm) was obtained using BioRad microplate reader and microplate manager software.
In order to confirm the identify of the minimal binding sequences within the alpha and beta peptides, each of the two peptides was incubated with different species of phosphatidylinositols as set forth in Example 1.

Row | Substance | binding to different species of phosphatidylinositols
1 | TDHQMAR [alpha-domain peptide] | no binding activity
2 | chlorotoxin | binding of chlorotoxin to different phosphatidylinositols
3 | KGRGKSY [beta-domain peptide] | binds to multiple species of phosphatidylinositols; also recorded: bound to all of the same species of phosphatidylinositols as did chlorotoxin
